Experiments:
[1] = system: splenocytes; assay: Splenocyte / CD11c+ dendritic cell CD1d-restricted presentation to DN32 and 24.8 NKT cells (IL-2 ELISA); format: cell-based, mouse
Experimental: FIG. 17B is a series of bar charts showing IL-2 production of splenocytes isolated from wild type mice in the presence or absence of exogenous antigens. Splenocytes were incubated for 24 hours with BMS212122 and washed. Exogenous antigens ovalbumin or α-galcer was added as indicated. Splenocytes were then co cultured with: CD4^+ cells from an OT-II transgenic mouse (left); DN32 NKT cells (center); or autoreactive 24.8 NKT cells (right). IL-2 concentrations were measured by ELISA of 40 hour culture supernatants. *, p<0.05.
FIG. 17C is a bar chart showing IL-2 production of splenocytes or bone marrow derived dendritic cells co cultured with 24.8 NKT cells and incubated for 24 hours with BMS212122. Anti-CD1d mAb 1B1 or an isotype control was added as indicated. IL-2 concentrations were measured by ELISA of 40 hour culture supernatants. (nd=not detected) *, p<0.02.
APCs were incubated with 100 ng/mL α-galcer (kindly provided by Dr. H. Ploegh) for 3 hours, washed three times in PBS and aliquoted into a 96 well plate at 10^6 cells/mL. DN32 cells were added at 1:1 E:T ratio unless otherwise indicated. CD4^+ cells were isolated from spleens of OT-II transgenic mice using positive selection on CD4 magnetic beads (Miltenyi Biotec) and incubated with APCs and 100 μg/mL ovalbumin. […] Mouse IL-2 production was assessed by ELISA (OptEIA, BD PharMingen) of 24 or 40 hour culture supernatants. […]

[2] = system: moDCs; assay: Human moDC presentation of α-galcer to DN32 iNKT cells (IL-2 ELISA); format: cell-based; details: moDCs differentiated in presence of inhibitor
Experimental: FIG. 20G is a line graph showing IL-2 production in human moDCs differentiated in the presence of BMS212122 (◯) or vehicle (●) were incubated with α-galcer. IL-2 concentrations were measured by ELISA of 24 hour culture supernatants. *, p<0.05; **, p<0.01.
APCs were incubated with 100 ng/mL α-galcer (kindly provided by Dr. H. Ploegh) for 3 hours, washed three times in PBS and aliquoted into a 96 well plate at 10^6 cells/mL. DN32 cells were added at 1:1 E:T ratio unless otherwise indicated. CD4^+ cells were isolated from spleens of OT-II transgenic mice using positive selection on CD4 magnetic beads (Miltenyi Biotec) and incubated with APCs and 100 μg/mL ovalbumin. The 24.8 NKT cell line was incubated with APCs in the absence of added antigen at E:T=2:1 unless otherwise indicated. Mouse IL-2 production was assessed by ELISA (OptEIA, BD PharMingen) of 24 or 40 hour culture supernatants. […]
Bone marrow was extracted from the femurs of C57BL6 or MTPmx1cre mice, washed once in PBS and resuspended in R10 supplemented with culture supernatant from murine GM-CSF transfected cells for a final concentration of 200 U/mL GM-CSF. […] Differentiated cells were harvested by gentle pipetting, washed in PBS, and analyzed by flow cytometry for surface expression of CD11c and I-A^b. […] After 5 days cells were dislodged by gentle pipetting, analyzed by flow cytometry and assayed for antigen presentation. […]

## Cc1ccc2c(nc(C)n2CCCCC2(C(=O)NCC(F)(F)F)c3ccccc3-c3ccccc32)c1NC(=O)c1ccccc1-c1ccc(C(F)(F)F)cc1 [BMS212122, 9-[4-[2,5-Dimethyl-4-[[[4′-(trifluoromethyl)[1,1′-biphenyl]-2-yl]carbonyl]amino]-1H-benzimidazol-1-yl]butyl]-N-(2,2,2-trifluoroethyl)-9H-fluorene-9-carboxamide]
[1]; CD11c-positive dendritic cell population from splenocytes
  effect on presentation of an endogenous ligand to 24.8 NKT cells: highly pronounced
[1]; splenocytes incubated 24 hours with inhibitor prior to addition of NKT cells
  ability to present exogenous and endogenous CD1d-restricted antigens: reduced
[2]
  capacity to present α-galcer to DN32 iNKT cells: reduced capacity

From patent publication US20050234073A1, “Methods of inhibiting inflammation” (priority 2003, published 2005)
